For four molecules, Ki results are on record in BindingDB's records for doi:10.1016/0014-5793(95)01389-x (Max-Planck-Institut, 1995).

This assay deals with 5-hydroxytryptamine receptor 5A (Mus musculus, UniProt P30966).

Structures are written as SMILES.

Sequence of 5-hydroxytryptamine receptor 5A (P30966 whole entry): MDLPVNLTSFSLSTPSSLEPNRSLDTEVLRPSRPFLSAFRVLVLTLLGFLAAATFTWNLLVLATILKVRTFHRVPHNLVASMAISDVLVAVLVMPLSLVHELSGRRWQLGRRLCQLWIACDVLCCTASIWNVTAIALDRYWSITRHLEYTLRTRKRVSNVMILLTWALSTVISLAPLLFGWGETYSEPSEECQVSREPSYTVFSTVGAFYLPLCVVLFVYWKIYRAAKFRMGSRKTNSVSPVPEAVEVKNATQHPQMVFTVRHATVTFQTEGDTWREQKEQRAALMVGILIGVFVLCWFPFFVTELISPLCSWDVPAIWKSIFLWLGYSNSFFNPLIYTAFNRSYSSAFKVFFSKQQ

`CC[C@@H](CO)NC(=O)[C@@H]1C=C2c3cccc4c3c(cn4C)C[C@H]2N(C)C1` had a Ki of 500 nM.
In the case of `CN(C)CCc1c[nH]c2ccc(O)cc12` [3-[2-(dimethylamino)ethyl]indol-5-ol] it was 2900 nM; in that of `CN1C[C@H](C(=O)N[C@]2(C)O[C@@]3(O)[C@@H]4CCCN4C(=O)[C@H](Cc4ccccc4)N3C2=O)C=C2c3cccc4[nH]cc(c34)C[C@H]21` [12'-hydroxy-2'-methyl-5'alpha-(phenylmethyl)ergotaman-3',6',18-trione], 38 nM.
On to `CN1CC(C(=O)O)C=C2c3cccc4[nH]cc(c34)CC21` (centres undefined) [NSC_622688], for which the Ki came out at 2000 nM.

A word on the Ki: it is a dissociation constant, usually derived from enzyme kinetics or from competition with a known ligand. Read a high Ki as weaker binding.
